These results are taken from US20250230147A1, “LACTAMS AS CBL-B INHIBITORS” (Genentech, Inc., priority 2021, published 2025).

Molecules are shown by their SMILES. Where a name gives a salt, the structure may show the parent alone. Read-outs that look alike come from different tables or passages of the source.

One experiment has as its target Cbl-b (Homo sapiens (Human), UniProt Q13191). As to the kind of experiment: Cbl-b LCK Ub TR-FRET assay (Cbl-b Lck HTRF). It counts as biochemical. In outline:
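Biotin-Cbl-b preincubated with compound (10-point 3-fold series) 60 min, then His-LCK with 1 mM ATP (2× mixture) added for 90 min at room temperature. Ubiquitination detected by TR-FRET using HA-ubiquitin/UBE2D2 adduct, anti-HA-D2 and streptavidin-Eu; IC50 normalised to no-LCK and DMSO controls.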
(Time-resolved FRET reads energy transfer from a long-lived donor to a nearby acceptor.)

The target of another experiment is c-Cbl (Homo sapiens (Human), UniProt P22681). As to the kind of experiment: C-Cbl LCK Ub TR-FRET assay (c-cbl Lck HTRF). It is filed as biochemical. The conditions noted are these: for (fold-selectivity): C-cbl Lck HTRF IC50 relative to Cbl-b Lck HTRF IC50. In outline:
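Signal is read once the detection mix has stood 20 min at ambient temperature. Curves are anchored by DMSO as maximum and by omission of LCK as minimum.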

Cbl-b, sequence (Q13191 40-426): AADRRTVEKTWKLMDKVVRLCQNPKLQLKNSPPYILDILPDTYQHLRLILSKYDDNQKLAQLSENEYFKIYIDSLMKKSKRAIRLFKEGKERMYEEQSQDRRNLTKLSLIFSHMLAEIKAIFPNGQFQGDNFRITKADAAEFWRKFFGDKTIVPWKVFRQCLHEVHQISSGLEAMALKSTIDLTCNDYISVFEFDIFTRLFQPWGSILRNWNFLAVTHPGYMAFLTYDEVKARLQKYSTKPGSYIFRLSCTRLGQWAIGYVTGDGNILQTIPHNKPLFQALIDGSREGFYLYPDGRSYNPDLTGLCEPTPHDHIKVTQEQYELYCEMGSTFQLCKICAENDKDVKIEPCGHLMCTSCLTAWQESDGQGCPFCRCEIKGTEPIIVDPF
c-Cbl, sequence (P22681 47-435): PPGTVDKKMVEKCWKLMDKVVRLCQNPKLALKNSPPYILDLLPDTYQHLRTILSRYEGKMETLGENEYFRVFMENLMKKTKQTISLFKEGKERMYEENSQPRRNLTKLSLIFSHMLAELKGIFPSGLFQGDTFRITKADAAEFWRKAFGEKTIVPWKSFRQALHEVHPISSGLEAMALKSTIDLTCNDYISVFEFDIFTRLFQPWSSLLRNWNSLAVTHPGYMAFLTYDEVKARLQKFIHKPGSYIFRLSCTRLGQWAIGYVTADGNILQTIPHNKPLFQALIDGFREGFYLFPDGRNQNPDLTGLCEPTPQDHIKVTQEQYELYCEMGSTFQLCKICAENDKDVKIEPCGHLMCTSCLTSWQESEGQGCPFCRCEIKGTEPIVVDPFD

Usually IC50 stands for the concentration at which inhibition is half-maximal. High values mean weaker potency in that assay, low ones greater potency in that assay. On to `CN1CCN(Cc2cc3c(c(C(F)(F)F)c2)CN(c2cccc(C4(Cc5nncn5C)CC(F)(F)C4)c2)C3=O)CC1C1CC1` (centres unmarked) [Compound 403, 6-((3-cyclopropyl-4-methylpiperazin-1-yl)methyl)-2-(3-(3,3-difluoro-1-((4-methyl-4H-1,2,4-triazol-3-yl)methyl)cyclobutyl)phenyl)-4-(trifluoromethyl)isoindolin-1-one], for which the IC50 against Cbl-b and at c-Cbl was 45 nM each time. The “(fold-selectivity)” value at c-Cbl is reported as “(1.0x)”.

In the case of `CCOc1cc(C2(Cc3nncn3C)CCC2)cc(N2Cc3c(cc(CN4CCN(C)C[C@@H]4C(C)C)cc3C(F)(F)F)C2=O)n1` [Compound 404, (S)-2-(6-ethoxy-4-(1-((4-methyl-4H-1,2,4-triazol-3-yl)methyl)cyclobutyl)pyridin-2-yl)-6-((2-isopropyl-4-methylpiperazin-1 - yl)methyl)-4-(trifluoromethyl)isoindolin-1-one], the IC50 against Cbl-b worked out at 10 nM. Besides, at c-Cbl, half-maximal inhibition (IC50) required 5.4 nM and the “(fold-selectivity)” value was “(0.54x)”.

As for `CC(C)[C@H]1CN(C2CC2)CCN1Cc1cc2c(c(C(F)(F)F)c1)CN(c1cccc(C3([C@@H](F)c4nncn4C)COC3)c1)C2=O` [Compound 405, 6-(((S)-4-cyclopropyl-2-isopropylpiperazin-1-yl)methyl)-2-(3-(3-((R)-fluoro(4-methyl-4H-1,2,4-triazol-3-yl)methyl)oxetan-3-yl)phenyl)-4-(trifluoromethyl)isoindolin-1-one], at Cbl-b, 18 nM corresponded to half-maximal inhibition (IC50). Further, at c-Cbl, the IC50 came to 16 nM and the “(fold-selectivity)” value is “(0.91x)”.

On to `CC(C)[C@@H]1CN(Cc2cc3c(c(C(F)(F)F)c2)CN(c2cccc(C4([C@@H](F)c5nncn5C)COC4)c2)C3=O)CCN1C` [Compound 406, 2-(3-(3-((R)-fluoro(4-methyl-4H-1,2,4-triazol-3-yl)methyl)oxetan-3-yl)phenyl)-6-(((R)-3-isopropyl-4-methylpiperazin-1-yl)methyl)-4-(trifluoromethyl)isoindolin-1-one], for which the IC50 amounted to 75 nM against Cbl-b and 84 nM at c-Cbl. Besides, the “(fold-selectivity)” value at c-Cbl is “(1.1x)”.

Compound `CC(C)[C@H]1CN(C)CCN1Cc1cc2c(c(C(F)(F)F)c1)CN(c1cccc(C3(Cc4nncn4C)COC3)c1)C2=O` [Compound 407, (S)-6-((2-isopropyl-4-methylpiperazin-1-yl)methyl)-2-(3-(3-((4-methyl-4H-1,2,4-triazol-3-yl)methyl)oxetan-3-yl)phenyl)-4-(trifluoromethyl)isoindolin-1-one] registered an IC50 against Cbl-b of 7.1 nM. At c-Cbl, the IC50 amounted to 5.7 nM and the “(fold-selectivity)” value is reported as “(0.80x)”.

`CC(C)Nc1cc(N2Cc3c(cc(CN4CCN(C)C[C@@H]4C(C)C)cc3C(F)(F)F)C2=O)cc(C2(Cc3nncn3C)CCC2)c1` [Compound 408, (S)-6-((2-isopropyl-4-methylpiperazin-1-yl)methyl)-2-(3-(isopropylamino)-5-(1-((4-methyl-4H-1,2,4-triazol-3-yl)methyl)cyclobutyl)phenyl)-4-(trifluoromethyl)isoindolin-1-one] had an IC50 on Cbl-b of 13 nM. For the same compound, at c-Cbl, half-maximal inhibition (IC50) required 9.1 nM and the “(fold-selectivity)” value is “(0.68x)”.

Consider `CC(C)Nc1cc(C2(Cc3nncn3C)CCC2)cc(N2Cc3c(cc(CN4CCN(C)C[C@@H]4C(C)C)cc3C(F)(F)F)C2=O)n1` [Compound 409, (S)-6-((2-isopropyl-4-methylpiperazin-1-yl)methyl)-2-(6-(isopropylamino)-4-(1-((4-methyl-4H-1,2,4-triazol-3-yl)methyl)cyclobutyl)pyridin-2-yl)-4-(trifluoromethyl)isoindolin-1-one], for which the IC50 at Cbl-b worked out at 12 nM. For the same compound, at c-Cbl, half-maximal inhibition (IC50) required 5.9 nM and the “(fold-selectivity)” value is on record as “(0.48x)”.

`CC(C)[C@H]1CN(C)CCN1Cc1cc2c(c(C(F)(F)F)c1)CN(c1cccc(C3(Cc4nncn4C)CCC3)c1)C2=O` [Compound 410, (S)-6-((2-isopropyl-4-methylpiperazin-1-yl)methyl)-2-(3-(1-((4-methyl-4H-1,2,4-triazol-3-yl)methyl)cyclobutyl)phenyl)-4-(trifluoromethyl)isoindolin-1-one] registered an IC50 on Cbl-b of 12 nM. Besides, on c-Cbl, the IC50 was found to be 77 nM and the “(fold-selectivity)” value is given as “(0.62x)”.

In the case of `CN1CCN(Cc2cc3c(c(C(F)(F)F)c2)CN(c2cccc(C4(Cc5nncn5C)CC(F)(F)C4)c2)C3=O)CC1` [Compound 411, 2-(3-(3,3-difluoro-1-((4-methyl-4H-1,2,4-triazol-3-yl)methyl)cyclobutyl)phenyl)-6-((4-methylpiperazin-1-yl)methyl)-4-(trifluoromethyl)isoindolin-1-one], inhibition at Cbl-b was half-maximal at 48 nM (IC50). In addition, at c-Cbl, the IC50 came out at 43 nM and the “(fold-selectivity)” value is “(0.88x)”.

The compound `CN1CC2CC(C1)N2Cc1cc2c(c(C(F)(F)F)c1)CN(c1cccc(C3(Cc4nncn4C)CC(F)(F)C3)c1)C2=O` [Compound 412, 2-(3-(3,3-difluoro-1-((4-methyl-4H-1,2,4-triazol-3-yl)methyl)cyclobutyl)phenyl)-6-((3-methyl-3,6-diazabicyclo[3.1.1]heptan-6-yl)methyl)-4-(trifluoromethyl)isoindolin-1-one] had an IC50 on Cbl-b of 50 nM. Also, at c-Cbl, the IC50 is 51 nM and the “(fold-selectivity)” value is listed as “(1.1x)”.

As for `CN1CC2CC(C1)N2Cc1cc2c(c(C(F)(F)F)c1)CN(c1cccc(C3(Cc4nncn4C)CC(F)(F)C3)c1)C2=O` [Compound 413, 2-(3-(3,3-difluoro-1-((4-methyl-4H-1,2,4-triazol-3-yl)methyl)cyclobutyl)phenyl)-6-((3-methyl-3,6-diazabicyclo[3.1.1]heptan-6-yl)methyl)-4-(trifluoromethyl)isoindolin-1-one formate], the IC50 at Cbl-b (formate) came to 56 nM; against c-Cbl (formate), 50 nM.

As for `CN1C[C@@H]2C[C@H]1CN2Cc1cc2c(c(C(F)(F)F)c1)CN(c1cccc(C3(Cc4nncn4C)CC(F)(F)C3)c1)C2=O` [Compound 414, 2-(3-(3,3-difluoro-1-((4-methyl-4H-1,2,4-triazol-3-yl)methyl)cyclobutyl)phenyl)-6-(((1S,4S)-5-methyl-2,5-diazabicyclo[2.2.1]heptan-2-yl)methyl)-4-(trifluoromethyl)isoindolin-1-one], at Cbl-b, the IC50 is 88 nM. On c-Cbl, the IC50 was determined as 68 nM and the “(fold-selectivity)” value is listed as “(0.77x)”.

On Cbl-b, `CC(C)NCc1cc2c(c(C(F)(F)F)c1)CN(c1cccc(C3(Cc4nncn4C)CC(F)(F)C3)c1)C2=O` [Compound 415, 2-(3-(3,3-difluoro-1-((4-methyl-4H-1,2,4-triazol-3-yl)methyl)cyclobutyl)phenyl)-6-((isopropylamino)methyl)-4-(trifluoromethyl)isoindolin-1-one] came in with an IC50 of 16 nM. In addition, at c-Cbl, the half-maximal inhibitory concentration (IC50) turned out to be 14 nM and the “(fold-selectivity)” value is “(0.91x)”.

`CC(C)N(C)Cc1cc2c(c(C(F)(F)F)c1)CN(c1cccc(C3(Cc4nncn4C)CC(F)(F)C3)c1)C2=O` [Compound 416, 2-(3-(3,3-difluoro-1-((4-methyl-4H-1,2,4-triazol-3-yl)methyl)cyclobutyl)phenyl)-6-((isopropyl(methyl)amino)methyl)-4-(trifluoromethyl)isoindolin-1-one]: the IC50 against Cbl-b came to 92 nM; against c-Cbl it was 110 nM. Moreover, the “(fold-selectivity)” value on c-Cbl is “(1.2x)”.

Take `CC(C)NCc1cc2c(c(C(F)(F)F)c1)CN(c1cccc(C3([C@@H](F)c4nncn4C)CC(F)(F)C3)c1)C2=O` [Compound 417, (R)-2-(3-(3,3-difluoro-1-(fluoro(4-methyl-4H-1,2,4-triazol-3-yl)methyl)cyclobutyl)phenyl)-6-((isopropylamino)methyl)-4-(trifluoromethyl)isoindolin-1-one]: half-maximal inhibition on Cbl-b (IC50) required 57 nM. In addition, at c-Cbl, the IC50 was determined as 52 nM and the “(fold-selectivity)” value is “(0.93x)”.

`CC(C)NCc1cc2c(c(C(F)(F)F)c1)CN(c1cccc(C3([C@H](F)c4nncn4C)CC(F)(F)C3)c1)C2=O` [Compound 418, (S)-2-(3-(3,3-difluoro-1-(fluoro(4-methyl-4H-1,2,4-triazol-3-yl)methyl)cyclobutyl)phenyl)-6-((isopropylamino)methyl)-4-(trifluoromethyl)isoindolin-1-one] displayed an IC50 against Cbl-b of 32 nM. Moreover, at c-Cbl, the IC50 amounted to 37 nM and the “(fold-selectivity)” value was “(1.2x)”.

In the case of `CC(C)N(C)Cc1cc2c(c(C(F)(F)F)c1)CN(c1cccc(C3([C@@H](F)c4nncn4C)CC(F)(F)C3)c1)C2=O` [Compound 419, (R)-2-(3-(3,3-difluoro-1-(fluoro(4-methyl-4H-1,2,4-triazol-3-yl)methyl)cyclobutyl)phenyl)-6-((isopropyl(methyl)amino)methyl)-4-(trifluoromethyl)isoindolin-1-one], the IC50 on Cbl-b stood at 360 nM; at c-Cbl it was 420 nM. The “(fold-selectivity)” value on c-Cbl is given as “(1.2x)”.

Turning to `CC(C)N(C)Cc1cc2c(c(C(F)(F)F)c1)CN(c1cccc(C3([C@H](F)c4nncn4C)CC(F)(F)C3)c1)C2=O` [Compound 420, (S)-2-(3-(3,3-difluoro-1-(fluoro(4-methyl-4H-1,2,4-triazol-3-yl)methyl)cyclobutyl)phenyl)-6-((isopropyl(methyl)amino)methyl)-4-(trifluoromethyl)isoindolin-1-one], half-maximal inhibition at Cbl-b (IC50) required 240 nM. Moreover, at c-Cbl, it took 220 nM to reach half-maximal inhibition (IC50) and the “(fold-selectivity)” value is “(0.91x)”.

Regarding `CC[C@H]1CN(Cc2cc3c(c(C(F)(F)F)c2)CN(c2cccc(C4(Cc5nncn5C)CC(F)(F)C4)c2)C3=O)CCN1C` [Compound 421, (S)-2-(3-(3,3-difluoro-1-((4-methyl-4H-1,2,4-triazol-3-yl)methyl)cyclobutyl)phenyl)-6-((3-ethyl-4-methylpiperazin-1-yl)methyl)-4-(trifluoromethyl)isoindolin-1-one], the results for the IC50 on Cbl-b and against c-Cbl were 15 nM and 11 nM, respectively. The “(fold-selectivity)” value on c-Cbl is given as “(0.72x)”.
